The values that follow come from patent EP4759815A1, “FUSED TRICYCLIC COMPOUND, PHARMACEUTICAL COMPOSITION THEREOF, AND USE THEREOF” (Haihe Biopharma Co., Ltd., priority 2023, dated 2025).

Where only a bound is given, the exact number is not on record here.

The nature of data set [1]: Test of blood-brain barrier properties in rats. The class given is in vivo. To be noted: male, Wistar Han, brain/plasma; rat, intravenous 1 mg/kg, after 4 h; read-out: Ratio % (brain/blood).
Another data set deals with MDA-MB-436 cells. The data set is described as follows: MDA-MB-436 cell proliferation inhibition test (CellTiter-Glo, 7 days). Format: cell-based. To be noted: Homo sapiens, MDA-MB-436, 168 h, 7 days incubation. (ATP-based viability assays read luminescence as a measure of living cells.)
The target in data set [2] is T1, recombinant human PARP2 protein (Homo sapiens, UniProt Q9UGN5).
T1 construct: purchased BPS 80502
The data set is described as follows: PARP2 inhibitory activity (histone substrate, chemiluminescent ELISA). The class given is biochemical. The note with it: histone substrate; read-out: PARP2 IC50. In general terms: An ELISA detects its analyte on a solid surface through an enzyme-linked reagent.

The nature of data set [3]: Preliminary pharmacokinetic tests in mice. Format: in vivo. To be noted: male, ICR.
The target in data set [4] is Recombinant human PARP1 protein (Homo sapiens, UniProt P09874). The experiment in a line: PARP1 inhibitory activity (histone substrate, chemiluminescent ELISA). The class given is biochemical. To be noted: for IC50: histone substrate, 500 µM NAD+ added to the substrate solution, read-out: PARP1 IC50; for PARP1/2 Fold selectivity: ratio of PARP2 IC50 to PARP1 IC50.
Another data set addresses T2, PDE3A (Homo sapiens, UniProt Q14432).
T2 construct: purchased ICE G13020203013
The data set is described as follows: PDE3A enzyme activity test (IMAP FP). To be noted: PDE3A protein 0.2 nM, FAM-cAMP 200 nM, 60 minutes at rt; off-target safety. Format: biochemical.

T1 sequence (Q9UGN5 whole entry): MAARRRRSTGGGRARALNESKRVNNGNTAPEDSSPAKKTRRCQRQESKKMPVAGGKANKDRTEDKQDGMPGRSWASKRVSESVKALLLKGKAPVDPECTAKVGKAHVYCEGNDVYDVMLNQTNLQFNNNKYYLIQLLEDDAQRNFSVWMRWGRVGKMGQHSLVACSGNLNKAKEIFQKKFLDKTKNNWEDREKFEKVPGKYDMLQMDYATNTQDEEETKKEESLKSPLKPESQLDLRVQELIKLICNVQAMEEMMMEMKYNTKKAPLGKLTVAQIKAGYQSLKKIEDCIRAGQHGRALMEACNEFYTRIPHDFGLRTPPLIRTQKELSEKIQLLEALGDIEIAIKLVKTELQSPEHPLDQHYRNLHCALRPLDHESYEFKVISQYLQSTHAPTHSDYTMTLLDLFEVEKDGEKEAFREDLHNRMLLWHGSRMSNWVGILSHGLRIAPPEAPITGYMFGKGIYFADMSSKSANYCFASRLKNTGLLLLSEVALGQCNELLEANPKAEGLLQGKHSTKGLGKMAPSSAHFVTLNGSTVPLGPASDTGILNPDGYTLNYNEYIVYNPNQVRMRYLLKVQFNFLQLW
Sequence of Recombinant human PARP1 protein (P09874 whole entry): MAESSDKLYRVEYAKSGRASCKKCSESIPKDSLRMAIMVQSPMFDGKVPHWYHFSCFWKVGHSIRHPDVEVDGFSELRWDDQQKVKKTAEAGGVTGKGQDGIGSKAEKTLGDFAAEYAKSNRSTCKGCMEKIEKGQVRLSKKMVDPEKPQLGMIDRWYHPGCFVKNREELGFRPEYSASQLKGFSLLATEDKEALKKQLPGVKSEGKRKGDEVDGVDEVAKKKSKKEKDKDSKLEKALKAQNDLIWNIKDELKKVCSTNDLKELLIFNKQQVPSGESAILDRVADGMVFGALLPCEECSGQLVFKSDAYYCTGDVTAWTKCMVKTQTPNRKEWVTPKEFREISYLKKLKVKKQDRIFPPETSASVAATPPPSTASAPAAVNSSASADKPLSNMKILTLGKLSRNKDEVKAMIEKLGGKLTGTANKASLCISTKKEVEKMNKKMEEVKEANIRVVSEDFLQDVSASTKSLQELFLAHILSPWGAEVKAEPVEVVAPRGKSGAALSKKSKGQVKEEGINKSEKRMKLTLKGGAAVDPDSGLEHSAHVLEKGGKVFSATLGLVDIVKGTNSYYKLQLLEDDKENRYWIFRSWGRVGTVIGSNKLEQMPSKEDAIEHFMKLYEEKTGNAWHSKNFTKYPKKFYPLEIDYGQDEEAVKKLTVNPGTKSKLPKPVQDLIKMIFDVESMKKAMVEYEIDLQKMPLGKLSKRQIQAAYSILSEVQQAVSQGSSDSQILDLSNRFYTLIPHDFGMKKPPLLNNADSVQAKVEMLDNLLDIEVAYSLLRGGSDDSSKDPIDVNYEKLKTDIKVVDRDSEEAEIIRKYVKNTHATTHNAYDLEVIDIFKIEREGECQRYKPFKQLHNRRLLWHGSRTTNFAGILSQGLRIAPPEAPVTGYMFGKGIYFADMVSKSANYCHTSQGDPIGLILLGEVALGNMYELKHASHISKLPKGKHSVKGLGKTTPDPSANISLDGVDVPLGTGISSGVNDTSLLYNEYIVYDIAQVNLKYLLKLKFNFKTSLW
T2 sequence (Q14432 whole entry, species assumed): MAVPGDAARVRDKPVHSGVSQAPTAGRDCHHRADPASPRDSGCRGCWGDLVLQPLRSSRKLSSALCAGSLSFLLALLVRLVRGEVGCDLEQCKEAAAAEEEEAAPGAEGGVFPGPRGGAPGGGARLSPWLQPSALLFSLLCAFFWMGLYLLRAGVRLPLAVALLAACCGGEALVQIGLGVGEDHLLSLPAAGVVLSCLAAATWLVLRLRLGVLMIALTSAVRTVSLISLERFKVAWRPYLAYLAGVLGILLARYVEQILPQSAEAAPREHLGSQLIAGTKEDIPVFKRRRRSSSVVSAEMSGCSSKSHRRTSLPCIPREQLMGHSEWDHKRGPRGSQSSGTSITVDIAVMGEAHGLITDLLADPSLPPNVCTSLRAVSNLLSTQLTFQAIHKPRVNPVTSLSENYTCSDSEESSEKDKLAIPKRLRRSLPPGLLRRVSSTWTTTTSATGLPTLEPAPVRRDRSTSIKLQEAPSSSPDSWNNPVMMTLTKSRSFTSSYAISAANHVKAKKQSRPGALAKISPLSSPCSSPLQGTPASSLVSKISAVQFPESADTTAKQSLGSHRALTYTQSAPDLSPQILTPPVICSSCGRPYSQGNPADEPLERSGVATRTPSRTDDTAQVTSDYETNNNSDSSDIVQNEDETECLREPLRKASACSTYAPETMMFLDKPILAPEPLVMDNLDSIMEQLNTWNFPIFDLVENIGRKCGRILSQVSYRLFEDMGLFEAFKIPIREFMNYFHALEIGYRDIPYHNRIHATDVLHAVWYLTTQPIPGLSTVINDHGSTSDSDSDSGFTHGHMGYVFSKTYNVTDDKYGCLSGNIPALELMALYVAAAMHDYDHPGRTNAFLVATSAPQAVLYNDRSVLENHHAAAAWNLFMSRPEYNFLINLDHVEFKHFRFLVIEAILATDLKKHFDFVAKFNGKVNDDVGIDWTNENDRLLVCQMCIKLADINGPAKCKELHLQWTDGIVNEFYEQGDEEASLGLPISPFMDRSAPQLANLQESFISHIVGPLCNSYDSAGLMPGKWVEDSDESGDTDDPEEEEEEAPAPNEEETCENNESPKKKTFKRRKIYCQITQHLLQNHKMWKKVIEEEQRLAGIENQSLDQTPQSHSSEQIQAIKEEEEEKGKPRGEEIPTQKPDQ

`CNC(=O)c1ccc(N2CCN(Cc3cc4c5c(cnn5C(C)C(=O)N4)c3)CC2)c(C)n1` (stereo not shown) [Compound 7]: the Kp at 4 h in data set [1] is 0.138.
The term IC50 denotes the concentration needed to halve the response being measured. As usually defined, the AUC(0-t) is the area under the concentration-time curve up to a stated or last time point. A lower AUC(0-t) goes with less exposure. The term clearance denotes a measure of how efficiently the substance is removed, as volume per time. The low end stands for a low capacity for elimination, the high end for a high capacity for elimination. For orientation: half-life means the time needed for the level to fall by half in the phase considered. Read a low half-life as fast loss. For `CNC(=O)c1ccc(N2CCN(Cc3cc4c5c(cnn5C5(CC5)C(=O)N4)c3)C[C@H]2C)c(C)n1` [Compound 40], the IC50 was determined as 17.9 nM in the data set with MDA-MB-436 cells, 81 nM in data set [2], 0.23 nM in data set [4] and 635 nM on PDE3A. Moreover, the AUC(0-t) amounted to 4410 ng·h/mL in data set [3] (iv, mouse plasma, i.v.(1mg/kg)) and 31100 ng·h/mL in data set [3] (po, mouse plasma, p.o.(5mg/kg)). This molecule also returned a clearance in data set [3] (iv, mouse plasma, i.v.(1mg/kg)) of 3.8 mL/min/kg. The half-life was 3.6 h in data set [3] (iv, mouse plasma, i.v.(1mg/kg)) and 3.1 h in data set [3] (po, mouse plasma, p.o.(5mg/kg)). Also, the bioavailability in data set [3] (plasma, oral, mouse, p.o.(5mg/kg) versus i.v.(1mg/kg)) is 124%. Further, in data set [4], the “PARP1/2 Fold selectivity” value is 353.6.
Take `CNC(=O)c1ccc(N2CCN(Cc3cc4c5c(cnn5c3)N(C3CC3)C(=O)N4)CC2)c(C)n1` [Compound 54]: the concentration for half-maximal inhibition (IC50) in the data set with MDA-MB-436 cells is less than 1.52 nM; in data set [2], 45.2 nM; in data set [4], 0.4 nM; against PDE3A, 428 nM. Besides, the “PARP1/2 Fold selectivity” value in data set [4] was 21.1.
Turning to `CNC(=O)c1ccc(N2CCN(Cc3cc4c5c(cnn5c3)N(C(C)C)C(=O)N4)CC2)c(C)n1` [Compound 56], the 50% inhibitory concentration (IC50) in the data set with MDA-MB-436 cells was determined as 15 nM; in data set [2], 1220 nM; in data set [4], 3.34 nM; against PDE3A, 878 nM. For the same molecule, the “PARP1/2 Fold selectivity” value in data set [4] is 364.5.
